This note sets out measurements from patent publication US7456218B2, “3-(4-benzyloxyphenyl) propanoic acid derivatives” (Takeda Pharmaceutical Company Limited, priority 2003, dated 2008).

T1 sequence (O14842 whole entry): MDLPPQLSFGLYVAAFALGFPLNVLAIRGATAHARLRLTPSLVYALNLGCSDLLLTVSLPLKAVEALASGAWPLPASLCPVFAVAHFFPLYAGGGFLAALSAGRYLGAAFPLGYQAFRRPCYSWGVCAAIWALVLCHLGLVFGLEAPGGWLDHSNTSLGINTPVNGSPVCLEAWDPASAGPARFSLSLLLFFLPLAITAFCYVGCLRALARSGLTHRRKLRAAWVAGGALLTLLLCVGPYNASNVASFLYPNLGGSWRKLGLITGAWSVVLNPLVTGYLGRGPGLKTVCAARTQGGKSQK

System in the first series: not given
Test: not given
Details: not given
Turning to `Cc1cccc(COc2cc(C)c(-c3cccc(COc4ccc(CCC(=O)O)c(F)c4)c3)c(C)c2)n1.Cl` [Example 97, 3-[4-({2′,6′-dimethyl-4′-[(6-methylpyridin-2-yl)methoxy]biphenyl-3-yl}methoxy)-2-fluorophenyl]propanoic acid hydrochloride], the melting point is 55 to 56 °C.

With `Cc1cc(OS(C)(=O)=O)cc(C)c1-c1cccc(COc2ccc(CCC(=O)O)c(F)c2)c1` [Example 102, 3-[4-({2′,6′-dimethyl-4′-[(methylsulfonyl)oxy]biphenyl-3-yl}methoxy)-2-fluorophenyl]propanoic acid], the melting point is 124 to 125 °C.

The compound `Cc1cc(OCC2(C)COC2)cc(C)c1-c1cccc(COc2ccc(CCC(=O)O)c(F)c2)c1` [Example 116, 3-[4-({2′,6′-dimethyl-4′-[(3-methyloxetan-3-yl)methoxy]biphenyl-3-yl}methoxy)-2-fluorophenyl]propanoic acid] returned a melting point of 112 to 113 °C.

A further series has as its target T1, human GPR40 (Homo sapiens, UniProt O14842).
T1 construct: expressed in transfected cells
Nature of the series: Determination of EC50 against human GPR40: changes in intracellular calcium concentration by FLIPR in CHO cells stably expressing human GPR40. The series is classed as cell-based. The conditions noted are these: CHO cell line stably expressing human GPR40, Fluo3-AM, read-out: EC50 (Receptor Function Modulating Action On GPR40). The procedure:
Determination of EC50 of the Compound of the Present Invention Against Human GPR40
For determination of EC50, CHO cell line that stably expressed human GPR40 was used. Unless otherwise indicated, the CHO cell line was cultured using α-MEM medium (Invitrogen) containing 10% fetal calf serum (Invitrogen).
The cells cultured to nearly confluent were rinsed with PBS (Invitrogen) on the previous day of the assay, peeled off with 0.05% Trypsin-EDTA solution (Invitrogen) and recovered by centrifugation. The number of the obtained cells was counted, and the cells were diluted such that 3×10^5 cells were contained per 1 mL of the medium, dispensed to a black welled 96-well plate (coster) by 100 μL per well and cultured overnight in a CO2 incubator. Various test compounds were added to the CHO cells thus prepared, and the changes in the intracellular calcium concentration was measured using FLIPR (Molecular Device). The below-mentioned pre-treatment was applied to measure changes in the intracellular calcium concentration by FLIPR.
An assay buffer for adding a fluorescence dye Fluo3-AM (DOJIN) to the cells, or for washing the cells immediately before FLIPR assay was prepared. To a solution of 1M HEPES (pH 7.4, DOJIN, 20 mL) added to HBSS (Invitrogen, 1000 mL) (hereinafter HBSS/HEPES solution) was added a solution (10 mL) obtained by dissolving probenecid (Sigma, 710 mg) in 1N NaOH (5 mL), and adding and mixing an HBSS/HEPES solution (5 mL), and the resulting solution was used as an assay buffer. Fluo3-AM (50 μg) was dissolved in dimethylsulfoxide (Wako, 21 μL), and an equivalent amount of 20% pluronic acid (Molecular Probes) was added and mixed. The solution was added to the assay buffer (10.6 mL) supplemented with fetal calf serum (105 μL) to give a fluorescence dye solution. […], the medium of the CHO cells newly inoculated to the black welled 96-well plate was removed, the fluorescence dye solution was immediately dispensed by 100 μL per well and the cells were cultured in a CO2 incubator for 1 hr to allow intake of the fluorescence dye by the cells. The cells after the culture were washed with the above-mentioned assay buffer and set on FLIPR. The test compound was diluted with dimethylsulfoxide in advance, dispensed to polypropylene 96-well plate (sample plate) by 2 μL, and cryopreserved at −20° C. To the thawed sample plate was added an assay buffer containing 0.015% CHAPS (DOJIN) by 198 μL, and simultaneously set on FLIPR together with the cell plate. After the aforementioned pre-treatment, changes in the intracellular calcium concentration upon addition of various test compounds was measured by FLIPR. Based on the results, a dose-response curve of each test compound was formed and EC50 was calculated.
A general note: Calcium flux is commonly read through the fluorescence of an indicator in the cells.
`Cc1cc(OCCc2scnc2C)ccc1-c1cccc(COc2ccc(CCC(=O)O)cc2)c1` [Example 14, 3-[4-({2′-methyl-4′-[2-(4-methyl-1,3-thiazol-5-yl)ethoxy]biphenyl-3-yl}methoxy)phenyl]propanoic acid]: the EC50 came out at 10 nM.

`Cc1cc(Cl)ccc1-c1cccc(COc2ccc(CCC(=O)O)cc2)c1` [Example 33, 3-[4-[(4′-chloro-2′-methylbiphenyl-3-yl)methoxy]phenyl]propanoic acid]: the EC50 stood at 6.1 nM.

Consider `Cc1cc(OCc2ccccc2)cc(C)c1-c1cccc(COc2ccc(CCC(=O)O)cc2)c1` [Example 39, 3-[4-[[4′-(benzyloxy)-2′,6′-dimethylbiphenyl-3-yl]methoxy]phenyl]propanoic acid], for which the EC50 was 32 nM.

Consider `COc1ccc(COc2ccc(CCC(=O)O)cc2)cc1-c1ccc(C)cc1C` [Example 49, 3-(4-((6-methoxy-2′,4′-dimethylbiphenyl-3-yl)methoxy)phenyl)propanoic acid], for which the EC50 turned out to be 11 nM.

Take `Cc1cc(C)c(-c2cccc(COc3ccc(CCC(=O)O)c(F)c3)c2)c(COc2ccc(F)cc2)c1` [Example 54, 3-{2-fluoro-4-[(2′-(4-fluorophenoxymethyl)-4′,6′-dimethylbiphenyl-3-yl)methoxy]phenyl}propanoic acid]: the EC50 is 49 nM.

For `CCOCCOc1cc(C)c(-c2cccc(COc3ccc(CC(F)(F)C(=O)O)cc3)c2)c(C)c1` [Example 75, 3-(4-{[4′-(2-ethoxyethoxy)-2′,6′-dimethylbiphenyl-3-yl]methoxy}phenyl)-2,2-difluoropropanoic acid], the EC50 was found to be 16 nM.

On to `CCS(=O)(=O)CCOc1cc(C)c(-c2cccc(COc3ccc(CCC(=O)O)c(F)c3)c2)c(C)c1` [Example 86, 3-[4-({4′-[2-(ethylsulfonyl)ethoxy]-2′,6′-dimethylbiphenyl-3-yl}methoxy)-2-fluorophenyl]propanoic acid], for which the EC50 was found to be 32 nM.

Turning to `Cc1cc(OCCCN2CCCC2=O)cc(C)c1-c1cccc(COc2ccc(CCC(=O)O)c(F)c2)c1` [Example 90, 3-[4-({2′,6′-dimethyl-4′-[3-(2-oxopyrrolidin-1-yl)propoxy]biphenyl-3-yl}methoxy)-2-fluorophenyl]propanoic acid], the EC50 was determined as 34 nM.

`Cc1cccc(COc2cc(C)c(-c3cccc(COc4ccc(CCC(=O)O)c(F)c4)c3)c(C)c2)n1.Cl` [Example 97, 3-[4-({2′,6′-dimethyl-4′-[(6-methylpyridin-2-yl)methoxy]biphenyl-3-yl}methoxy)-2-fluorophenyl]propanoic acid hydrochloride]: the EC50 came out at 23 nM.

As to `Cc1cc(OCC2(O)CCS(=O)(=O)CC2)cc(C)c1-c1cccc(COc2ccc(CCC(=O)O)c(F)c2)c1` [Example 100, 3-[2-fluoro-4-({4′-[(4-hydroxy-1,1-dioxidotetrahydro-2H-thiopyran-4-yl)methoxy]-2′,6′-dimethylbiphenyl-3-yl}methoxy)phenyl]propanoic acid], the EC50 is 17 nM.

`Cc1cc(OS(C)(=O)=O)cc(C)c1-c1cccc(COc2ccc(CCC(=O)O)c(F)c2)c1` [Example 102, 3-[4-({2′,6′-dimethyl-4′-[(methylsulfonyl)oxy]biphenyl-3-yl}methoxy)-2-fluorophenyl]propanoic acid]: the EC50 is 15 nM.

On to `Cc1cc(OC2CCS(=O)(=O)CC2)cc(C)c1-c1cccc(COc2ccc(CCC(=O)O)c(F)c2)c1` [Example 114, 3-[4-({4′-[(1,1-dioxidotetrahydro-2H-thiopyran-4-yl)oxy]-2′,6′-dimethylbiphenyl-3-yl}methoxy)-2-fluorophenyl]propanoic acid], for which the EC50 turned out to be 20 nM.

A word on the melting point: it is the temperature, or range, at which the solid turns liquid. By EC50 is commonly meant the midpoint of the concentration-response curve.
